{
  "source": "patent US9884832B2",
  "about": "(priority 2011, dated 2018)",
  "data": [
    {"target": "AM2 S31 (wild-type serine at position 31 in the M2 protein), influenza virus A/Udorn/72 (Influenza A virus, UniProt P0DOF5)", "sequence (P0DOF5 whole entry, looked up)": "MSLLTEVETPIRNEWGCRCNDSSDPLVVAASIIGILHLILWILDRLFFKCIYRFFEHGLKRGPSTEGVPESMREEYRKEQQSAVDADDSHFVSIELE", "assay": "cell-based", "conditions": "100 uM; Xenopus oocytes; activity range class", "values": [
      {"smiles": "F[B-](F)(F)C[NH2+]C12CC3CC(CC(C3)C1)C2", "note": "[Example 204a, N-[(Trifluoro-4-boranyl)methyl]adamantan-1-aminium]", "S31 OOcyte Inhibition at 100 uM (%)": "A ((A)=31-95%)"}
    ]},
    {"target": "AM2 S31 (wild-type serine at position 31 in the M2 protein), influenza virus A/Udorn/72 (Influenza A virus, UniProt P0DOF5)", "assay": "cell-based", "conditions": "100 uM; Xenopus oocytes; activity range class; read-out: S31 OOcyte Inhibition at 100 uM (%)", "units": {"inhibition at 100 µM": "%"}, "values": [
      {"smiles": "c1ccc(-c2noc(CNC34CC5CC(CC(C5)C3)C4)n2)cc1", "note": "[Example 123a, N-((3-phenyl-1,2,4-oxadiazol-5-yl)methyl)adamantan-1-amine]", "inhibition at 100 µM": "0 to 30"},
      {"smiles": "Oc1cc(OCc2ccccc2)ccc1CNC12CC3CC(CC(C3)C1)C2", "note": "[Example 37a, 2-(Adamantan-1-ylaminomethyl)-5-benzyloxy-phenol]", "inhibition at 100 µM": "31 to 95"},
      {"smiles": "c1coc(-c2ccc(CNC34CC5CC(CC(C5)C3)C4)cn2)c1", "note": "[Example 60a, N-((6-(furan-2-yl)pyridin-3-yl)methyl)adamantan-1-amine]", "inhibition at 100 µM": "0 to 30"},
      {"smiles": "Brc1cnc(CNC23CC4CC(CC(C4)C2)C3)[nH]1", "note": "[Example 89a, Adamantan-1-yl-(5-bromo-1H-imidazol-2-ylmethyl)-amine]", "inhibition at 100 µM": "31 to 95"},
      {"smiles": "c1ccc(-c2nnc(CNC34CC5CC(CC(C5)C3)C4)o2)cc1", "note": "[Example 115a, N-((5-phenyl-1,3,4-oxadiazol-2-yl)methyl)adamantan-1-amine]", "inhibition at 100 µM": "0 to 30"},
      {"smiles": "Brc1ccc(CNC23CC4CC(CC(C4)C2)C3)s1", "note": "[Example 81a, N-((5-Bromothiophen-2-yl)methyl)adamantan-1-amine]", "inhibition at 100 µM": "31 to 95"},
      {"smiles": "Cc1csc2sc(CNC34CC5CC(CC(C5)C3)C4)c(C)c12", "note": "[Example 176a]", "inhibition at 100 µM": "0 to 30"},
      {"smiles": "c1scc2[nH]c(CNC34CC5CC(CC(C5)C3)C4)nc12", "note": "[Example 171a, Adamantan-1-yl-(1H-thieno[3,4-d]imidazol-2-ylmethyl)-amine]", "inhibition at 100 µM": "0 to 30"},
      {"smiles": "c1csc(-c2cc(CNC34CC5CC(CC(C5)C3)C4)no2)c1", "note": "[Example 142a, N-((5-(thiophen-2-yl)isoxazol-3-yl)methyl)adamantan-1-amine]", "inhibition at 100 µM": "0 to 30"},
      {"smiles": "c1ccc(-c2cc(CNC34CC5CC(CC(C5)C3)C4)on2)cc1", "note": "[Example 164a]", "inhibition at 100 µM": "0 to 30"},
      {"smiles": "Oc1cccc2ccc(CNC34CC5CC(CC(C5)C3)C4)nc12", "note": "[Example 65a, 2-((adamantan-1-ylamino)methyl)quinolin-8-ol]", "inhibition at 100 µM": "31 to 95"},
      {"smiles": "c1cnc2ccc(CNC34CC5CC(CC(C5)C3)C4)cc2c1", "note": "[Example 39a, Adamantan-1-yl-quinolin-6-ylmethyl-amine]", "inhibition at 100 µM": "0 to 30"},
      {"smiles": "c1cc(CNC23CC4CC(CC(C4)C2)C3)co1", "note": "[Example 66a, Adamantan-1-yl-furan-3-ylmethyl-amine]", "inhibition at 100 µM": "31 to 95"},
      {"smiles": "Cc1ccc(C(C)NC23CC4CC(CC(C4)C2)C3)s1", "note": "(stereo not drawn) [Example 97a, N-(1-(5-methylthiophen-2-yl)ethyl)adamantan-1-amine]", "inhibition at 100 µM": "0 to 30"},
      {"smiles": "OC12CC3CC(C1)CC(NCc1cc4cc(Br)sc4s1)(C3)C2", "note": "[Example 195a, 3-[(5-Bromo-thieno[2,3-b]thiophen-2-ylmethyl)-amino]-adamantan-1-ol]", "inhibition at 100 µM": "0 to 30"},
      {"smiles": "C(=C\\c1ccccc1)/CNC12CC3CC(CC(C3)C1)C2", "note": "[Example 199a, N-cinnamyladamantan-1-amine]", "inhibition at 100 µM": "0 to 30"},
      {"smiles": "COc1ccc2[nH]c(CNC34CC5CC(CC(C5)C3)C4)cc2c1", "note": "[Example 182a]", "inhibition at 100 µM": "0 to 30"},
      {"smiles": "Cc1ncc(-c2ccc(CNC34CC5CC(CC(C5)C3)C4)s2)s1", "note": "[Example 154a, N-((5-(2-methylthiazol-5-yl)thiophen-2-yl)methyl)adamantan-1-amine]", "inhibition at 100 µM": "0 to 30"},
      {"smiles": "c1coc(-c2nc(CNC34CC5CC(CC(C5)C3)C4)no2)c1", "note": "[Example 160a, N-((5-(furan-2-yl)-1,2,4-oxadiazol-3-yl)methyl)adamantan-1-amine]", "inhibition at 100 µM": "0 to 30"},
      {"smiles": "c1csc(-c2ncc(CNC34CC5CC(CC(C5)C3)C4)s2)c1", "note": "[Example 144a, N-((2-(thiophen-2-yl)thiazol-5-yl)methyl)adamantan-1-amine]", "inhibition at 100 µM": "0 to 30"},
      {"smiles": "COC(=O)c1ccc(-c2ccc(CNC34CC5CC(CC(O)(C5)C3)C4)cc2)cc1", "note": "[Example 190a, 4′-[(3-Hydroxy-adamantan-1-ylamino)-methyl]-biphenyl-4-carboxylic acid methyl ester]", "inhibition at 100 µM": "0 to 30"}
    ]},
    {"target": "AM2 S31 (wild-type serine at position 31 in the M2 protein), influenza virus A/Udorn/72 (Influenza A virus, UniProt P0DOF5)", "assay": "cell-based", "conditions": "Table 1; 100 uM; Xenopus oocytes, pH 5.5, -20 mV; read-out: S31 OOcyte Inhibition at 100 uM (%)", "units": {"inhibition at 100 µM": "%"}, "values": [
      {"smiles": "NC(=O)c1ccc(CNC23CC4CC(CC(C4)C2)C3)cc1", "note": "[Example 18, 4-(Adamantan-1-ylaminomethyl)-benzamide]", "inhibition at 100 µM": "0 to 30"},
      {"smiles": "N=C(Nc1ccc(O)cc1)C12CC3CC(CC(C3)C1)C2", "note": "[Example 5]", "inhibition at 100 µM": "31 to 95"},
      {"smiles": "c1ccc2[nH]c(CNC34CC5CC(CC(C5)C3)C4)cc2c1", "note": "[Example 93, Adamantan-1-yl-(1H-indol-2-ylmethyl)-amine]", "inhibition at 100 µM": "0 to 30"},
      {"smiles": "CC(=O)c1sccc1-c1ccc(CNC23CC4CC(CC(C4)C2)C3)cc1", "note": "[Example 43, 1-(3-(4-((Adamantan-1-ylamino)methyl)phenyl)thiophen-2-yl)ethanone]", "inhibition at 100 µM": "0 to 30"},
      {"smiles": "c1cc(CNC23CC4CC(CC(C4)C2)C3)c2cc[nH]c2c1", "note": "[Example 96, Adamantan-1-yl-(1H-indol-4-ylmethyl)-amine]", "inhibition at 100 µM": "31 to 95"},
      {"smiles": "CC(=O)Oc1ccc(CNC23CC4CC(CC(C4)C2)C3)c(O)c1", "note": "[Example 60, Acetic acid 4-(adamantan-1-ylaminomethyl)-3-hydroxy-phenyl ester]", "inhibition at 100 µM": "31 to 95"},
      {"smiles": "COC(=O)C(Cc1cnc[nH]1)NCC12CC3CC(CC(C3)C1)C2", "note": "(stereo not drawn) [Example 3, 2-[(Adamantan-1-ylmethyl)-amino]-3-(3H-imidazol-4-yl)-propionic acid methyl ester]", "inhibition at 100 µM": "0 to 30"},
      {"smiles": "c1cn(-c2ccc(CNC34CC5CC(CC(C5)C3)C4)cc2)cn1", "note": "[Example 36, Adamantan-1-yl-(4-imidazol-1-yl-benzyl)-amine]", "inhibition at 100 µM": "0 to 30"},
      {"smiles": "COc1ccc(CN(C)C23CC4CC(CC(C4)C2)C3)cc1", "note": "[Example 32, Adamantan-1-yl-(4-methoxy-benzyl)-methyl-amine]", "inhibition at 100 µM": "31 to 95"},
      {"smiles": "c1ccc2[nH]c(CNC34CC5CC(CC(C5)C3)C4)nc2c1", "note": "[Example 92, Adamantan-1-yl-(1H-benzoimidazol-2-ylmethyl)-amine]", "inhibition at 100 µM": "0 to 30"},
      {"smiles": "Oc1ccc(CNC23CC4CC(CC(C4)C2)C3)cc1O", "note": "[Example 45, 4-(Adamantan-1-ylaminomethyl)-benzene-1,2-diol]", "inhibition at 100 µM": "31 to 95"},
      {"smiles": "Cc1nn2cc(CNC3C4CC5CC(C4)CC3C5)nc2s1", "note": "(stereo not drawn) [Example 106, Adamantan-2-yl-(2-methyl-imidazo[2,1-b][1,3,4]thiadiazol-6-ylmethyl)-amine]", "inhibition at 100 µM": "0 to 30"},
      {"smiles": "O=[N+]([O-])c1cc(CNC23CC4CC(CC(C4)C2)C3)ccc1O", "note": "[Example 52, 4-(Adamantan-1-ylaminomethyl)-2-nitro-phenol]", "inhibition at 100 µM": "31 to 95"},
      {"smiles": "c1ccc2sc(CNC34CC5CC(CC(C5)C3)C4)cc2c1", "note": "[Example 88, Adamantan-1-yl-benzo[b]thiophen-2-ylmethyl-amine]", "inhibition at 100 µM": "0 to 30"},
      {"smiles": "c1cc2cn[nH]c2cc1CNC12CC3CC(CC(C3)C1)C2", "note": "[Example 95, Adamantan-1-yl-(1H-indazol-6-ylmethyl)-amine]", "inhibition at 100 µM": "31 to 95"},
      {"smiles": "c1nc(-c2ccc(CNC34CC5CC(CC(C5)C3)C4)cc2)no1", "note": "[Example 40, Adamantan-1-yl-(4-[1,2,4]oxadiazol-3-yl-benzyl)-amine]", "inhibition at 100 µM": "0 to 30"},
      {"smiles": "[O-][S+]1Cc2cc(CNC34CC5CC(CC(C5)C3)C4)sc2C1", "note": "(stereo not drawn) [Example 85, Adamantan-1-yl-(5-oxo-5,6-dihydro-4H-5M-thieno[3,4-b]thiophen-2-ylmethyl)-amine]", "inhibition at 100 µM": "0 to 30"},
      {"smiles": "c1nc2ccc(CNC34CC5CC(CC(C5)C3)C4)cc2[nH]1", "note": "[Example 94, Adamantan-1-yl-(3H-benzoimidazol-5-ylmethyl)-amine]", "inhibition at 100 µM": "0 to 30"}
    ]},
    {"target": "AM2 S31 (wild-type serine at position 31 in the M2 protein), influenza virus A/Udorn/72 (Influenza A virus, UniProt P0DOF5)", "assay": "cell-based", "conditions": "Table 3; 100 uM; Xenopus oocytes, pH 5.5, -20 mV; read-out: S31 OOcyte Inhibition at 100 uM (%)", "units": {"inhibition at 100 µM": "%"}, "values": [
      {"smiles": "Fc1cc(F)cc(-c2cc(CNC34CC5CC(CC(C5)C3)C4)no2)c1", "note": "[Example 33b, N-((5-(3,5-difluorophenyl)isoxazol-3-yl)methyl)adamantan-1-amine]", "inhibition at 100 µM": "0 to 30"},
      {"smiles": "COc1ccccc1-c1ccc(CNC23CC4CC(CC(C4)C2)C3)nc1", "note": "[Example 69b, Adamantan-1-yl-[5-(2-methoxy-phenyl)-pyridin-2-ylmethyl]-amine]", "inhibition at 100 µM": "0 to 30"},
      {"smiles": "Cc1cccc(-c2ncc(CNC34CC5CC(CC(C5)C3)C4)cn2)c1", "note": "[Example 63b, N-((2-mtolylpyrimidin-5-yl)methyl)adamantan-1-amine]", "inhibition at 100 µM": "0 to 30"},
      {"smiles": "CSc1ccc(-c2cc(CNC34CC5CC(CC(C5)C3)C4)no2)cc1", "note": "[Example 37b, N-((5-(4-(methylthio)phenyl)isoxazol-3-yl)methyl)adamantan-1-amine]", "inhibition at 100 µM": "0 to 30"},
      {"smiles": "Oc1cc(-c2ccco2)ccc1CNC12CC3CC(CC(C3)C1)C2", "note": "[Example 7b, 2-((-Adamantan-1-ylamino)methyl)-5-(furan-2-yl)phenol]", "inhibition at 100 µM": "0 to 30"},
      {"smiles": "COc1cccc(-c2cc(CNC34CC5CC(CC(C5)C3)C4)no2)c1", "note": "[Example 39b, N-((5-(3-methoxyphenyl)isoxazol-3-yl)methyl)adamantan-1-amine]", "inhibition at 100 µM": "0 to 30"},
      {"smiles": "Cc1csc(CNC23CC4CC(CC(C4)C2)C3)n1", "note": "[Example 68b, Adamantan-1-yl-(4-methyl-thiazol-2-ylmethyl)-amine]", "inhibition at 100 µM": "31 to 95"},
      {"smiles": "CSc1ccc(-c2cc(CNCC34CC5CC(CC(C5)C3)C4)no2)cc1", "note": "[Example 40b, 1-((3r,5r,7r)-adamantan-1-yl)-N-((5-(4-(methylthio)phenyl)isoxazol-3-yl)methyl)methanamine]", "inhibition at 100 µM": "0 to 30"},
      {"smiles": "CCOC(=O)CN(C)c1ncc(CNC23CC4CC(CC(C4)C2)C3)cn1", "note": "[Example 60b, N-((2-methyl(ethylcarboxymethyl)aminopyrimidin-5-yl)methyl)adamantan-1-amine]", "inhibition at 100 µM": "0 to 30"},
      {"smiles": "Clc1ccc(CNC23CC4CC(CC(C4)C2)C3)cc1", "note": "[Example 1b, N-(4-Chlorobenzyl)adamantan-1-amine]", "inhibition at 100 µM": "31 to 95"}
    ]},
    {"target": "AM2 S31 (wild-type serine at position 31 in the M2 protein), influenza virus A/Udorn/72 (Influenza A virus, UniProt P0DOF5)", "assay": "cell-based", "conditions": "pH 5.5, read-out: S31 OOcyte Inhibition at 100 uM (%)", "units": {"inhibition at 100 µM": "%"}, "values": [
      {"smiles": "Oc1ccccc1CNC12CC3CC(CC(C3)C1)C2", "note": "[Example 28, 2-(Adamantan-1-ylaminomethyl)-phenol]", "inhibition at 100 µM": "31 to 95"}
    ]}
  ]
}
